# Assay results from patent US6534512B1, “Dideoxycarbocyclic nucleosides” (Regents of the University of Minnesota, priority 1988, dated 2003).
# Tests used:
# [1] = test system: HIV; design: TI50 against HIV in vitro: unit not given beside the values; details: background; cited from earlier work
# [2] = test system: HIV; assay: Anti-HIV assay (NCI FCRF, XTT microculture tetrazolium), infected cells; type: cell-based; details: for anti-HIV activity: in vitro
# Text: (§1) Compounds of formula I were screened for anti-HIV activity at the National Cancer Institute, Frederick Cancer Research Facility, Frederick, Md. (FCRF). The following are the current screening mode operational procedures utilized at FCRF. The protocol consists of 3 areas, (I) preparation of infected cells and distribution to the test plates, (II) preparation of drug dilution plates and distribution to the test plates, and (III) XTT assay procedure. See D. A. Scudiero et al., “A New Simplified Tetrazolium Assay for Cell Growth and Drug Sensitivity in Culture,” Cancer Res., 48, 4827 (1988).
# Cells to be infected (a normal lymphoblastoid cell line which expresses CD4) are placed in 50 ml conical centrifuge tubes and treated for 1 hr with 1-2 μg/ml of polybrene at 37° C. The cells are then pelleted for 8 min. ) at 1200 rpm. HIV virus, diluted 1:10 in media (RMP1-1640, 10% human serum or 15% fetal calf serum (FCS), with IL-2, for ATH8 cells only, and antibiotics) is added to provided an MOI of 0.001. Medium alone is added to virus-free control cells. Assuming an infectious virus titer of 10^−4, an MOI of 0.001 represents […] infectious virus particles per 10,000 cells. About 500,000 cells/tube are exposed to 400 μl of the virus dilution. The resultant mixture is incubated for 1 hr at 37° C. in Air-CO2. The infected or uninfected cells are diluted to give 1×10^−4 (with human serum or 2×10^−4 with fetal calf serum) cells/100 μl.
# Infected or uninfected cells (100 μl) are distributed to appropriate wells of a 96 well, U-bottom, microtiter plate. Each compound dilution is tested in duplicate with infected cells. Uninfected cells are examined for drug sensitivity in a single well for each dilution of compound. Drug-free control cells, infected and uninfected, are run in triplicate. Wells B2 through G2 served as reagent controls and received medium only. The plates are incubated at 37° C. in Air-CO2 until the drug is added.
# Dilution plates (flat bottom 96 well, microtiter plates) are treated overnight with phosphate buffered saline (PBS) or media containing at least 1% FCS or 1% human serum (depending on the medium used in the test), beginning the day before assay. This “blocking” procedure is used to limit the adsorption of drug to the microtiter tray during the dilution process. The wells are filled completely with the blocking solution and allowed to stand at room temperature in a humidified chamber in a hood.
# The dilution process is begun by first diluting the test compound 1:20. Blocked, dilution plates are prepared by flicking out the blocking solution and blotting dry on sterile gauze. All wells of each plate are then filled with 225 μl of the appropriate medium using a Cetus liquid handling system. Twenty-five microliters (25 μl) of each 1:20 diluted compound is then manually added to row A of a blocked and filled dilution plate. Four compounds, sufficient to supply two test plates, are added per dilution plate. The four compounds are then serially diluted ten-fold from row A through row H using the Cetus liquid handling system. The starting dilution of each compound in row A is, at this point, 1:200. The dilution plates are kept on ice until needed.
# Using a multi-channel pipettor with 6 microtips, 100 μl of each drug dilution is transferred to the test plate which already contains 100 μl of medium plus cells. The final dilution, in the test plate, starts at 1:400 (wells B4 through G4). This dilution (to 0.25% DMSO) prevents the DMSO vehicle from interfering with cell growth. Drug-free, infected or uninfected cells (wells B3 through G3) and reagent controls (B2 through G2) receive medium alone. The final two compounds are then transferred from wells H7 through H12 to a second test plate using the same procedure. Test plates are incubated at 37° C. in Air-CO2 or 7-14 days or until virus controls are lysed as determined macroscopically.
# 1. […]
# [3] = test system: P-388 mouse leukemia cells; assay: P-388 mouse leukemia cell culture cytotoxicity assay; type: cell-based; details: cultured P-388 leukemia cells
# Text: The ED50 cytotoxicity concentrations determined for analogs 7a, 9a, 10a, 16a, 16b, 17a and 17b in the P-388 mouse leukemia cell culture assay are given in Table II.
# [4] = test system: HSV-2; details: background; cited from earlier work
# [5] = test system: normal cells (uninfected); assay: Anti-HIV assay (NCI FCRF, XTT), drug sensitivity of uninfected cells; type: cell-based
# Text: as §1
# Cells to be infected (a normal lymphoblastoid cell line which expresses CD4) are placed in 50 ml conical centrifuge tubes and treated for 1 hr with 1-2 μg/ml of polybrene at 37° C. The cells are then pelleted for 8 min. ) at 1200 rpm. HIV virus, diluted 1:10 in media (RMP1-1640, 10% human serum or 15% fetal calf serum (FCS), with IL-2, for ATH8 cells only, and antibiotics) is added to provided an MOI of 0.001. Medium alone is added to virus-free control cells. […]
# Using a multi-channel pipettor with 6 microtips, 100 μl of each drug dilution is transferred to the test plate which already contains 100 μl of medium plus cells. […] Test plates are incubated at 37° C. in Air-CO2 or 7-14 days or until virus controls are lysed as determined macroscopically. […]
# [6] = test system: HSV-1; assay: Activity against HSV-1
# [7] = test system: H9/HTLV-IIIB; assay: Earlier anti-HIV assay at the Southern Research Institute; type: cell-based; details: MT-2 cells cultured with H9/HTLV-IIIB
# Protocol: An earlier assay carried out at the Southern Research Institute yielded a TI50 of about 200 when MT-2 cells were cultured with H9/HTLV-IIIB.
SMILES,anti-HIV activity [2],cytotoxicity / activity against P-388 leukemia cells [3],other results
Cc1cn(C2CC(CO)C(N=[N+]=[N-])C2)c(=O)[nH]c1=O (stereo not drawn) [carbocyclic analog of AZT],,,activity against HIV [1]: inactive
"Nc1nc(Cl)c2ncn([C@H]3C=C[C@@H](CO)C3)c2n1 (racemic) [Compound 13a, (±)-(1α,4α)-4-(2-Amino-6-chloro-9H-purin-9-yl)-2-cyclopentenyl carbinol]",active,,
"Nc1nc(Cl)c2nnn(C3C=CC(CO)C3)c2n1 (racemic) [Compound 16a, (±)-(1α,4α)-4-(5-Amino-7-chloro-3H-1,2,3-triazolo[4,5d]-pyrimidin-3-yl)-2-cyclopentenyl carbinol]",,cytotoxic,
Nc1ncnc2c1ncn2[C@@H]1C[C@H](CO)[C@@H](O)[C@@H]1O [Cyclaridine],,,activity against HSV-2 [4]: highly active; TI50 against HIV in vitro [1]: 10
"CC(=O)OCC1C=CC(n2cnc3c(O)nc(N)nc32)C1 (stereo not drawn) [acetate ester (R′=Ac) of 14a, (1α,4α)-4-(2-Amino-6-hydroxy-9H-purin-9-yl)-2-cyclopentenyl Acetoxycarbinol]",active,,inhibition of HIV ([2]; at 6 μg/ml): 28%
"Nc1nc(O)c2nnn(C3C=CC(CO)C3)c2n1 (racemic) [Compound 17a, (±)-(1α,4α)-4-(5-Amino-7-hydroxy-3H-1,2,3-triazolo[4,5-d]-pyrimidin-3-yl)-2-cyclopentenyl carbinol]",,cytotoxic,
"Nc1ncnc2c1ncn2C1C=CC(CO)C1 (racemic) [Compound 9a, (±)-(1α,4α)-4-(6-Amino-9H-purin-9-yl)-2-cyclopentenyl-carbinol]",active,cytotoxic,
"Nc1nc(N)c2nnn(C3C=CC(CO)C3)c2n1 (racemic) [Compound 18a, (±)-(1α,4α)-4-(5,7-Diamino-3H-1,2,3-triazolo[4,5-d]pyrimidin-3-yl)-2-cyclopentenyl carbinol]",,cytotoxic,
"OCC1C=CC(n2cnc3c(Cl)ncnc32)C1 (racemic) [Compound 7a, (±)-(1α,4α)-4-(6-chloro-9H-purin-9-yl)-2-cyclopentenyl-carbinol]",active,cytotoxic,
"Nc1nc(N)c2ncn([C@H]3C=C[C@@H](CO)C3)c2n1 (racemic) [Compound 15a, (±)-(1α,4α)-4-(2,6-Diamino-9H-purin-9-yl)-2-cyclopentenyl-carbinol]",active,,
"Nc1nc(O)c2ncn([C@H]3C=C[C@@H](CO)C3)c2n1 [(−)14a, (1S,4R)-4-(2-Amino-6-hydroxy-9H-Purin-9-yl)-2-cyclopentenyl Carbinol]",highly active,,"IC50 ([5]; Homo sapiens, CCRF-CEM, CEM cells): 189 µg/mL"
"Nc1nc(O)c2ncn(C3C=CC(CO)C3)c2n1 (racemic) [Compound 14a, (±)-(1α,4α)-4-(2-Amino-6-hydroxy-9H-purin-9-yl)-2-cyclopentenyl carbinol]",strongly inhibits,,"inhibitory concentration (IC50) with respect to normal cells ([5]; calculated from FIG. 2 data): about 100 μg/ml; activity against HSV-1 [6]: active; effective concentration (EC50) with respect to infected cells ([2]; calculated from FIG. 2 data): about 0.15 μg/ml; TI50, general range ([2]; varied with the infected cell line used): 200-400; TI50 [7]: about 200"
"OCC1C=CC(n2cnc3c(S)ncnc32)C1 (racemic) [Compound 10a, (±)-(1α,4α)-4-(6-Mercapto-9H-purin-9-yl)-2-cyclopentenyl-carbinol]",active,cytotoxic,
